Assay results as given in patent publication US11530206B2, “Phenylaminopyrimidine amide autophagy inhibitors and methods of use thereof” (Deciphera Pharmaceuticals, LLC, priority 2019, dated 2022).

Legend:
ULK1 kinase = target: T1, ULK1 kinase (Homo sapiens, UniProt O75385, E37A/K38A); test: Biochemical assay for ULK1.3 (coupled pyruvate kinase/lactate dehydrogenase assay, peptide substrate); conditions: 0.1 nM ULK1 (residues 1-283), 1 mM ATP
T1 construct: purchased Beryllium
T1 sequence (O75385 1-283 E37A/K38A): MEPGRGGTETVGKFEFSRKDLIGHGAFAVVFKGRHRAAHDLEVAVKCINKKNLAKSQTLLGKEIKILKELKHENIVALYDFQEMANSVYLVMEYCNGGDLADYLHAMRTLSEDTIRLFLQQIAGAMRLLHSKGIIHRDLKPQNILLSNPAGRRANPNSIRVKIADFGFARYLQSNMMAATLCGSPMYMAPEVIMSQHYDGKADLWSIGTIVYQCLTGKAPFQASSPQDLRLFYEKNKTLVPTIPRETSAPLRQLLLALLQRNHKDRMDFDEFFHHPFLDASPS
Procedure: Biochemical Assay for ULK1.3 (SEQ. ID NO: 2)
Inhibition of ULK1 was measured by adding serial diluted test compound (final assay concentration of 1% DMSO). A decrease in absorption at 340 nm was monitored continuously for 6 hours at 30° C. on a multi-mode microplate reader (BioTek). The reaction rate was calculated using the 2-3 h time frame. The reaction rate at each concentration of compound was converted to percent inhibition using controls (i.e. reaction with no test compound and reaction with a known inhibitor) and IC50 values were calculated using software routines in Prism (GraphPad software).

ULK kinase [1] = test: pATG13 levels of mutant KRas A549 cells after treatment with ULK inhibitors in combination with trametinib (ELISA); format: cell-based, human; conditions: A549 (KRAS mutant) lung cancer cells, 250 nM trametinib, overnight, pS318-ATG13
Procedure: Cellular Inhibition of ULK Kinase Substrate ATG13 Protein pATG13 Levels of Mutant KRas A549 Cells after Treatment with ULK Inhibitors in Combination with Trametinib
(§1) A549 (KRAS mutant) human lung cancer cells (6,000 cells/well) were added to a 384-well tissue-culture treated plate in 50 μL of pre-warmed DMEM medium supplemented with 10% characterized fetal bovine serum (Invitrogen, Carlsbad, Calif.), 100 units/mL penicillin G, and 100 μg/mL streptomycin and allowed to grow overnight at 37° C., 5% CO2, and 95% humidity. The following day, 10 μL of media containing trametinib or DMSO as a control was added to wells. […] A dose response of a test compound (0.6 μL per well) was added. DMSO (0.6 μL) was added to control wells. The plate was briefly shaken to mix wells and then incubated at 37° C. overnight. The next day, the media was aspirated and cells were washed with Dulbecco's Phosphate Buffered Saline (Gibco). Cells were lysed using MPER lysis buffer (Pierce, Rockford, Ill.) containing Halt Phosphatase and Protease Inhibitors (Pierce, Rockford, Ill.) and Phosphatase inhibitor cocktail 2 (Sigma, St. Louis, Mo.) at 4° C. for 10 minutes with shaking.
(§2) Plate wells were washed with ELISA wash buffer. Cell lysate was added to wells and incubated at room temperature for 2 hours. Plate wells were washed with ELISA wash buffer. […] Plate wells were washed with ELISA wash buffer. […] Plate wells were washed with ELISA wash buffer. […] The reaction was stopped with 2N Sulfuric Acid. The plate was analyzed at on a plate reader measuring absorbance at 450 nm and 540 nm (background). Signal was calculated by first subtracting the background absorbance at 540 nm from the absorbance at 450 nm for each well. Next, the background corrected absorbance at 450 nm from blank wells was subtracted from test wells. Data was compared to control wells to determine % ATG13 phosphorylation. GraphPad Prism was used to calculate IC50 values.

ULK kinase [2] = test: pATG13 levels of mutant KRas MiaPaCa-2 cells after treatment with ULK inhibitors in combination with trametinib (ELISA); format: cell-based, human; conditions: MiaPaCa-2 pancreatic cancer cells, 250 nM trametinib, overnight, pS318-ATG13
Procedure: as §1, with “MiaPaCa-2” for “A549 (KRAS mutant)”, “pancreatic” for “lung”, “(10000” for “(6,000”, “G, 100 µg/mL streptomycin,” for “G,”, “2.5% Horse Serum” for “100 μg/mL streptomycin”
as §2

LRRK2 kinase = target: T2, LRRK2 kinase (Homo sapiens, UniProt Q5S007); test: Biochemical assay for LRRK2 (coupled pyruvate kinase/lactate dehydrogenase assay); conditions: 26.4 nM LRRK2 (residues 970-2528), peptide substrate, 1 mM ATP
T2 construct: purchased Thermo Fisher
Procedure: Example 138. Biochemical Assay for LRRK2 (SEQ. ID NO: 4)
Activity of LRRK2 kinase was determined spectroscopically using a coupled pyruvate kinase/lactate dehydrogenase assay that continuously monitors the ATP hydrolysis-dependent oxidation of NADH (e.g., Schindler et al. Science (2000) 289: 1938-1942). Assays were conducted in 384-well plates (100 μL final volume) using 26.4 nM LRRK2 (Thermo Fisher), 0.1 mM peptide substrate ([…] (SEQ ID NO: 6)), 1.5 units pyruvate kinase, 2.1 units lactate dehydrogenase, 1 mM phosphoenol pyruvate, 0.28 mM NADH and 1 mM ATP in assay buffer (100 mM Tris, pH 7.5, 15 mM MgCl2, 0.5 mM DTT, 0.004% (w/v) BSA, and 0.004% Triton X-100). Inhibition of LRRK2 was measured by adding serial diluted test compound (final assay concentration of 1% DMSO). A decrease in absorption at 340 nm was monitored continuously for 6 hours at 30° C. on a multi-mode microplate reader (BioTek). The reaction rate was calculated using the 2-3 h time frame. The reaction rate at each concentration of compound was converted to percent inhibition using controls (i.e. reaction with no test compound and reaction with a known inhibitor) and IC50 values were calculated using software routines in Prism (GraphPad software).

T2 sequence (Q5S007 with tags, fused parts or gaps): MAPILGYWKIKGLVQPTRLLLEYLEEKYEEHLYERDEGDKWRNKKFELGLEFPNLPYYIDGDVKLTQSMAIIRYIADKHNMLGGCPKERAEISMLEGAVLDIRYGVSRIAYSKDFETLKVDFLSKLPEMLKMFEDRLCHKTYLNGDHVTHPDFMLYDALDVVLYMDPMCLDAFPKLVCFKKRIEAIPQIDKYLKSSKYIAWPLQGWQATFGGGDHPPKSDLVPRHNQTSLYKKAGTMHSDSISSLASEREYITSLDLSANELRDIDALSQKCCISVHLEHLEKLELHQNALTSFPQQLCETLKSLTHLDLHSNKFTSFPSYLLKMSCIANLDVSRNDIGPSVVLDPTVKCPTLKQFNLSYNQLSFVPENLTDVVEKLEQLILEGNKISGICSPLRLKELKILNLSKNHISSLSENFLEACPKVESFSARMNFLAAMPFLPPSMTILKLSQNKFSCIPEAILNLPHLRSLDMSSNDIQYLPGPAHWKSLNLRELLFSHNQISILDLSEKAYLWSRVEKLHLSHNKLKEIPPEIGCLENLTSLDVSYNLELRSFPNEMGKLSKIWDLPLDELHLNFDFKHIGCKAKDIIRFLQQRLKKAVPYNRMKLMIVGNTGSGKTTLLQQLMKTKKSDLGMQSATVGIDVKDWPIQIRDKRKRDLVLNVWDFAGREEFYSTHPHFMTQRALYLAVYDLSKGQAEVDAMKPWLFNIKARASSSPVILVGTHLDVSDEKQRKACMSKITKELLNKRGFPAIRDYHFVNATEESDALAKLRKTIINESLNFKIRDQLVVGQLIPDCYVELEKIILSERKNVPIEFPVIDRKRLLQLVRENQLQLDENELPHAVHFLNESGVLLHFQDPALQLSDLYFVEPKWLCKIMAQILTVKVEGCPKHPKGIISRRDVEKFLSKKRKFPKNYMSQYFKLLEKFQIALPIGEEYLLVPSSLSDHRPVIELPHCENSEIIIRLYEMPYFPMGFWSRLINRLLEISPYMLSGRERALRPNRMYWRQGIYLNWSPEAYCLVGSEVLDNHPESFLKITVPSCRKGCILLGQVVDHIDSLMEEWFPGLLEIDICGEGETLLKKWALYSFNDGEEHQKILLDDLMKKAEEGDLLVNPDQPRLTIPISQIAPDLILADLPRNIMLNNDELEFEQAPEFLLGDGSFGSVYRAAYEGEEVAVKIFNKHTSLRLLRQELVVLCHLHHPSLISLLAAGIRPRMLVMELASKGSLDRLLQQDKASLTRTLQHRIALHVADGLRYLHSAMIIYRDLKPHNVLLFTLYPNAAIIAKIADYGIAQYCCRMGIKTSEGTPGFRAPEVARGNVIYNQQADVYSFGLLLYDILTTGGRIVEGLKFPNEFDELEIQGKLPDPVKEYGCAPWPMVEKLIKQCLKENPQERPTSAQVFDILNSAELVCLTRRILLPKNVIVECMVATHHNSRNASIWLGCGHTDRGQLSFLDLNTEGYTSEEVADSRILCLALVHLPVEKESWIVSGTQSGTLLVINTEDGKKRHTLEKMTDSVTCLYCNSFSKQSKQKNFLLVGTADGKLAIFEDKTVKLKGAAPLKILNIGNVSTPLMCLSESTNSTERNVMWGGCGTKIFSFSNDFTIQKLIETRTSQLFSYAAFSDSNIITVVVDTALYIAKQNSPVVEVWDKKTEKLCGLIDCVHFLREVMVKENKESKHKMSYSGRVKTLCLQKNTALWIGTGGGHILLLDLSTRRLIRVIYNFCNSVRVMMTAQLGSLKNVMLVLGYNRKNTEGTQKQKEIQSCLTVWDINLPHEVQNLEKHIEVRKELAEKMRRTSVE

SMILES	IC50 (ULK1 kinase) [nM]	IC50 (ULK kinase [1]) [nM]	IC50 (ULK kinase [2]) [nM]	IC50 (LRRK2 kinase) [nM]
CC(C)c1cc(N2CCN(C)CC2)ccc1Nc1ncc(Br)c(NCCCN2CCOCCC2=O)n1 [Example 87]	25 to 100	300 to 600	300 to 600	300 to 600
CN(C)C1CN(c2ccc(Nc3ncc(C(F)(F)F)c(NCCCN4CCCCC4=O)n3)c(C3CC3)c2)C1 [Example 126]	1 to 25	100 to 300	10 to 100	1 to 100
CN1CCN(c2ccc(Nc3ncc(C(F)(F)F)c(NCCCN4CCOCCC4=O)n3)c(Cl)c2)CC1 [Example 132]	1 to 25	100 to 300	10 to 100	1 to 100
CN1C[C@H]2C[C@@H]1CN2c1ccc(Nc2ncc(C(F)(F)F)c(NCCCN3CCOCCC3=O)n2)c(C2CC2)c1 [Example 125]	1 to 25	10 to 100	10 to 100	1 to 100
CCc1cc(N2C[C@@H]3C[C@H]2CN3C)ccc1Nc1ncc(C(F)(F)F)c(NCCCN2CCOCCC2=O)n1 [Example 119]	1 to 25	100 to 300	10 to 100	100 to 300
CCc1cc(N2CC3CCC(C2)N3C)ccc1Nc1ncc(C(F)(F)F)c(NCCCN2CCCCC2=O)n1 [Example 68]	1 to 25	10 to 100	10 to 100	100 to 300
CN1C[C@@H]2C[C@H]1CN2c1ccc(Nc2ncc(C(F)(F)F)c(NCCCN3CCOCCC3=O)n2)c(C2CC2)c1 [Example 116]	25 to 100	100 to 300	10 to 100	1 to 100
COCc1cc(N2CCN(C)CC2)ccc1Nc1ncc(C(F)(F)F)c(NCCCN2CCCOC2=O)n1 [Example 147]	1 to 25	100 to 300	100 to 300	300 to 600
COCc1cc(N2CCN(C)CC2)ccc1Nc1ncc(C(F)(F)F)c(NCCCN2CCOCCC2=O)n1 [Example 127]	1 to 25	100 to 300	100 to 300	300 to 600
O=C1CCOCCN1CCCNc1nc(Nc2ccc(N3CCN4CCC[C@@H]4C3)cc2C2CC2)ncc1C(F)(F)F [Example 107]	1 to 25	10 to 100	10 to 100	100 to 300
CN1CCN(c2cc(C3CC3)c(Nc3ncc(C(F)(F)F)c(NCCCN4CCCCC4=O)n3)cc2F)CC1 [Example 35]	25 to 100	100 to 300	100 to 300	1 to 100
CN1CCN(c2ccc(Nc3ncc(C(F)(F)F)c(NCCCN4CCOCCC4=O)n3)c(C3CCCC3)c2)CC1 [Example 112]	1 to 25	100 to 300	100 to 300	100 to 300
CCc1cc(N2C[C@@H]3C[C@H]2CN3C)ccc1Nc1ncc(C(F)(F)F)c(NCCCN2CCCOC2=O)n1 [Example 120]	1 to 25	100 to 300	100 to 300	100 to 300
CC(C)c1cc(N2CCN(C)CC2)ccc1Nc1ncc(C(F)(F)F)c(NCCCN2CCCCC2=O)n1 [Example 33]	1 to 25	100 to 300	10 to 100	300 to 600
CCc1cc(N2CCN(C)CC2)ccc1Nc1ncc(C#N)c(NCCCN2CCOCCC2=O)n1 [Example 129]	25 to 100	300 to 600	100 to 300	> 600
CN1CCN(c2ccc(Nc3ncc(C(F)(F)F)c(NCCCN4CCC(C)(C)OC4=O)n3)c(C3CC3)c2)CC1 [Example 148]	1 to 25	10 to 100	10 to 100	100 to 300
CCc1cc(N2CCN3CCC[C@H]3C2)ccc1Nc1ncc(C(F)(F)F)c(NCCCN2CCOCCC2=O)n1 [Example 122]	1 to 25	300 to 600	100 to 300	1 to 100
CCc1cc(N2CCN(C)CC2)ccc1Nc1cc(NCCCN2CCOCCC2=O)c(C(F)(F)F)cn1 [Example 92]	1 to 25	300 to 600	100 to 300	> 600
CN1CCN(c2ccc(Nc3ncc(C(F)(F)F)c(NCCCN4CCOCCC4=O)n3)c(Br)c2)CC1 [Example 131]	1 to 25	100 to 300	300 to 600	100 to 300
CN1C[C@@H]2C[C@H]1CN2c1ccc(Nc2ncc(C(F)(F)F)c(NCCCN3CCCOC3=O)n2)c(C2CC2)c1 [Example 117]	25 to 100	100 to 300	10 to 100	1 to 100
CCc1cc(N2CCCN(C)CC2)ccc1Nc1ncc(C(F)(F)F)c(NCCCN2CCOCCC2=O)n1 [Example 79]	1 to 25	100 to 300	10 to 100	100 to 300
CCc1cc(N2C[C@H]3C[C@@H]2CN3C)ccc1Nc1ncc(C(F)(F)F)c(NCCCN2CCOCCC2=O)n1 [Example 124]	1 to 25	10 to 100	10 to 100	100 to 300
